ChEMBL document CHEMBL4118215, “Design and synthesis of functionalized piperazin-1yl-(E)-stilbenes as inhibitors of 17α-hydroxylase-C17,20-lyase (Cyp17)” (Bioorg Med Chem Lett, 2018)

Tests used:
[1] = biological target: T1, Steroid 17-alpha-hydroxylase/17,20 lyase (Homo sapiens, UniProt P05093); assay: Inhibition of recombinant CYP17 (unknown origin) expressed in human AD293 cells using [21-3H]17alpha-hydroxypregnenolone as substrate preincubated for 60 mins followed by substrate addition measured after 4 hrs Topcount method; type: cell-based
T1 sequence (P05093 whole entry): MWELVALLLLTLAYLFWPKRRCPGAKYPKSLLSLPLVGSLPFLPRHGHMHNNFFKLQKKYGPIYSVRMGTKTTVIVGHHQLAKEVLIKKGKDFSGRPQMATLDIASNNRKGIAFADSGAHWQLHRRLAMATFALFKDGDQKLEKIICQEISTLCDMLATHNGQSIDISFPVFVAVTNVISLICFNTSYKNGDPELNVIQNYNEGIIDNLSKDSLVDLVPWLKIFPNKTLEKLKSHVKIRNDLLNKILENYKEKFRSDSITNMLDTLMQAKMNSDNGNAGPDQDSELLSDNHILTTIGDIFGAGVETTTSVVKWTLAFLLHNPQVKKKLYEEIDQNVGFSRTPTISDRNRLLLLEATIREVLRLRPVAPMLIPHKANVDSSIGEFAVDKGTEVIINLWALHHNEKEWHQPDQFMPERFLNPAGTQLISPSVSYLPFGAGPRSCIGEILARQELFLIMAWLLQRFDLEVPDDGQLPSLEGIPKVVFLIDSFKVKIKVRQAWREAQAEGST

Cavia porcellus [2] = assay: Half-life in guinea pig at 10 mg/kg, po by LC-MS/MS analysis; type: ADME, organism-based; conditions: in vivo
[3] = Clearance in guinea pig at 1 mg/kg, iv by LC-MS/MS analysis; type: ADME, organism-based, Cavia porcellus; conditions: in vivo
Homo sapiens [4] = organism: Homo sapiens; assay: Selectivity index, ratio of IC50 for CYP19 (unknown origin) to IC50 for recombinant CYP17 (unknown origin)
Cavia porcellus [5] = assay: Cmax in guinea pig at 10 mg/kg, po by LC-MS/MS analysis; type: ADME, organism-based; parameters: dose 10 mg/kg, route oral; conditions: in vivo
[6] = Half-life in guinea pig liver microsomes in presence of NADPH regenerating system by LC/MS/MS method; type: ADME, Cavia porcellus, microsome
Cavia porcellus [7] = assay: AUC (0 to infinity) in guinea pig at 10 mg/kg, po by LC-MS/MS analysis; type: ADME, organism-based; parameters: dose 10 mg/kg, time infinity, route oral; conditions: in vivo
[8] = Volume of distribution in guinea pig at 1 mg/kg, iv by LC-MS/MS analysis; type: ADME, organism-based, Cavia porcellus; conditions: in vivo
[9] = Tmax in guinea pig at 1 mg/kg, iv by LC-MS/MS analysis; type: ADME, organism-based, Cavia porcellus; conditions: in vivo
Cavia porcellus [10] = assay: Oral bioavailability in guinea pig at 10 mg/kg by LC-MS/MS analysis; type: ADME, organism-based; conditions: in vivo
[11] = Half-life in guinea pig at 1 mg/kg, iv by LC-MS/MS analysis; type: ADME, organism-based, Cavia porcellus; conditions: in vivo
[12] = Cmax in guinea pig at 1 mg/kg, iv by LC-MS/MS analysis; type: ADME, organism-based, Cavia porcellus; parameters: dose 1 mg/kg, route intravenous; conditions: in vivo
Homo sapiens [13] = organism: Homo sapiens; assay: Selectivity index, ratio of IC50 for human CYP3A4 to IC50 for recombinant CYP17 (unknown origin)
[14] = AUC (0 to infinity) in guinea pig at 1 mg/kg, iv by LC-MS/MS analysis; type: ADME, organism-based, Cavia porcellus; parameters: dose 1 mg/kg, route intravenous, time infinity; conditions: in vivo

For `O=S(=O)(C(F)F)N1CCN(c2ccc(/C=C/c3cc(F)cc(-c4ccncc4)c3)cc2)CC1`, the IC50 [1] was 5 nM.
`CC(=O)N1CCN(c2ccc(/C=C/c3cc(F)cc(-c4ccncc4)c3)cc2)CC1` gave a t1/2 (Cavia porcellus [2]) of 6 h, a clearance [3] of 1.71 L/h/kg and a Ratio IC50 (Homo sapiens [4]) of 2170. For the same molecule, the Cmax (Cavia porcellus [5]) was 1.018 µg/mL, the half-life [6] was 1 h and the AUC (Cavia porcellus [7]) was 14.89 µg·h/mL. For the same molecule, the Vd [8] was 14.8 L/kg, the Tmax [9] was 0.1 h and the F (Cavia porcellus [10]) was 184.2%. For the same molecule, the half-life [11] was 6 h, the Cmax [12] was 0.132 µg/mL and the Ratio IC50 (Homo sapiens [13]) was 151. For the same molecule, the AUC(0-inf) [14] was 0.586 µg·h/mL.
`O=S(=O)(C1CC1)N1CCN(c2ccc(/C=C/c3cc(F)cc(Cn4ccnc4)c3)cc2)CC1` showed an IC50 [1] of 34 nM.
In the case of `CC(=O)N1CCN(c2ccc(OCC3COC(Cn4ccnc4)(c4ccc(Cl)cc4Cl)O3)cc2)CC1` (stereo unspecified) [KETOCONAZOLE], the half-life [6] is reported as 0.667 h.
Work on `O=S(=O)(C(F)F)N1CCN(c2ccc(/C=C/c3cc(F)cc(Cn4ccnc4)c3)cc2)CC1` yielded an IC50 [1] of 5 nM.
Molecule `O=S(=O)(C(F)F)N1CCN(c2ccc(/C=C/c3cc(Cl)cc(-c4ccncc4)c3)cc2)CC1` has an IC50 [1] of 5 nM.
For `N#CCS(=O)(=O)N1CCN(c2ccc(/C=C/c3cc(Cl)cc(-c4ccncc4)c3)cc2)CC1`, the IC50 [1] was 6 nM.
For `CCS(=O)(=O)N1CCN(c2ccc(/C=C/c3cc(F)cc(-c4ccncc4)c3)cc2)CC1`, the t1/2 (Cavia porcellus [2]) was 4.8 h, the clearance [3] was 0.527 L/h/kg and the Ratio IC50 (Homo sapiens [4]) was 2000. For the same molecule, the Cmax (Cavia porcellus [5]) was 0.54 µg/mL, the half-life [6] was 1 h and the AUC (Cavia porcellus [7]) was 4.19 µg·h/mL. The Vd [8] was 4.05 L/kg, the Tmax [9] was 0.15 h and the half-life [11] was 5.7 h. It also gave a Cmax [12] of 0.852 µg/mL, a Ratio IC50 (Homo sapiens [13]) of 49 and an AUC(0-inf) [14] of 2 µg·h/mL.
Work on `O=S(=O)(C1CC1)N1CCN(c2ccc(/C=C/c3cc(F)cc(-c4ccncc4)c3)cc2)CC1` yielded an IC50 [1] of 1 nM.
Work on `N=C(N)N1CCN(c2ccc(/C=C/c3cc(Cl)cc(-c4ccncc4)c3)cc2)CC1` yielded an IC50 [1] of 17 nM.
With `O=S(=O)(N1CCN(c2ccc(/C=C/c3cc(F)cc(-c4ccncc4)c3)cc2)CC1)C(F)(F)F` the t1/2 (Cavia porcellus [2]) was 5.25 h, the clearance [3] was 1.25 L/h/kg and the IC50 [1] was 2 nM. For the same molecule, the Ratio IC50 (Homo sapiens [4]) was 167, the Cmax (Cavia porcellus [5]) was 0.271 µg/mL and the half-life [6] was 1 h. The AUC (Cavia porcellus [7]) was 2.452 µg·h/mL, the Vd [8] was 9.1 L/kg and the Tmax [9] was 0.2 h. It also gave a half-life [11] of 5 h, a Cmax [12] of 0.203 µg/mL and a Ratio IC50 (Homo sapiens [13]) of 1560. The AUC(0-inf) [14] was 0.815 µg·h/mL.
